Results on three compounds are retold here after publication PMC8716824, “Design, Synthesis and Anti-Lung Cancer Evaluation of 1, 2, 3-Triazole Tethered Dihydroartemisinin-Isatin Hybrids” (Frontiers in Pharmacology, 2021).

The nature of data set [1]: Stability in mouse liver microsomes. In kind it is in vitro ADME. As to the method: (§1) The metabolic stability of selected hybrids 8a,c and 9i was assessed in mouse and human microsomes, and the results were listed in Table 3.
On the technique in general: Microsomes from liver hold many membrane-bound enzymes, among them those of drug oxidation.

The subject of data set [2] is cisplatin-resistant A549 (A549/DDP) lung cancer cells. The data set is described as follows: MTT antiproliferative assay, A549/DDP. As to conditions: A549/DDP. In kind it is cell-based. As to the method: (§2) The antiproliferative activity of 1,2,3-triazole tethered dihydroartemisinin-isatin hybrids 8a-c and 9a-k against A549, multidrug-resistant A549/DOX and A549/DDP lung cancer cell lines as well as cytotoxicity towards mouse embryonic fibroblast cells NIH/3T3 were assessed by 3-(4,5-dimethylthiazol-2-yl)-2,5-diphenyltetrazolium bromide (MTT) assay, and half maximal inhibitory concentration (IC50) values were listed in Table 2. A549, A549/DOX, and A549/DDP lung cancer cells (2 × 10^3) were plated in each well of a 96-well plate and were allowed to adhere and spread for 24 h. The 1,2,3-triazole tethered dihydroartemisinin-isatin hybrids 8a-c and 9a-k were added to a final concentration of 100 μM, and the cells were cultured for 24 h at 37°C. 3-(4,5-dimethyl-2-thiazolyl)-2,5-diphenyltetrazolium bromide (MTT) solution (10 µL) was added to each well, and the cultures were incubated for an additional 4 h. A further 100 µL of […] was added and incubation continued overnight. The absorbance at 540 nm was determined in each well with a 96-well plate reader. The growth of the treated cells was compared with that of untreated cells.
(In general: Tetrazolium assays rely on reduction of a dye to a coloured formazan, in cell work by metabolically active cells.)

Data set [3] deals with A549, A549/DOX and A549/DDP lung cancer cell lines. The data set is described as follows: MTT antiproliferative assay, ranges pooled over lung cancer cell lines. In kind it is cell-based. On the procedure: as §2
In data set [4] the test system is mouse embryonic fibroblast cells NIH/3T3. The data set is described as follows: MTT cytotoxicity assay, NIH/3T3. Format: cell-based. As to conditions: for SI (selectivity index): IC50(NIH/3T3)/IC50(A549); for IC50: Mus musculus, NIH3T3, cytotoxicity, NIH/3T3 cells, MTT (called CC50 in method). As to the method: The antiproliferative activity of 1,2,3-triazole tethered dihydroartemisinin-isatin hybrids 8a-c and 9a-k against A549, multidrug-resistant A549/DOX and A549/DDP lung cancer cell lines as well as cytotoxicity towards mouse embryonic fibroblast cells NIH/3T3 were assessed by 3-(4,5-dimethylthiazol-2-yl)-2,5-diphenyltetrazolium bromide (MTT) assay, and half maximal inhibitory concentration (IC50) values were listed in Table 2.
The cytotoxicity (CC50) of the synthesized 1,2,3-triazole tethered dihydroartemisinin-isatin hybrids 8a-c and 9a-k were examined by the MTT assay in mouse embryonic fibroblast cells NIH/3T3. The compounds were dissolved in DMSO with concentrations from 1,024 to 1 μg/ml. The NIH/3T3 cells were maintained in culture medium at 37°C under 5% CO2 atmosphere. Cells were seeded in 96-well plates (1 × 10^4 cell per well) and allowed to recover for 24 h. After 72 h of exposure, cells were harvested and cell viability was assessed by MTT assay. The CC50 values were calculated by Bliss analy.

In data set [5] the test system is doxorubicin-resistant A549 (A549/DOX) lung cancer cells. The data set can be described thus: MTT antiproliferative assay, A549/DOX. Format: cell-based. Particulars: Homo sapiens. On the procedure: as §2
The next data set deals with A549 lung cancer cells. The data set is described as follows: MTT antiproliferative assay, A549. Format: cell-based. Particulars: Homo sapiens. On the procedure:
as §2

Data set [6] is described as follows: Stability in human liver microsomes. In kind it is in vitro ADME. As to the method:
as §1

A short description of data set [7]: Pharmacokinetics in CD-1 mice. In kind it is in vivo. Particulars: mouse, plasma, 30 mg/kg, single intravenous administration; for clearance: read-out: Cl (clearance rate) (converted); for bioavailability: read-out: F (bioavailability); for Tmax: read-out: tmax (peak time) (converted). As to the method: The pharmacokinetic behavior of hybrids 8a,c was determined in CD-1 mice model by single intravenous administration with dose of 30 mg/kg.
CD-1 mice (20–25 g) were used in the pharmacokinetic study, and each treatment group had 3 mice which were dosed with hybrids 8a,c suspension at 30 mg/kg by single intravenous administration. Compounds were suspended in 0.5% CMC for iv, and blood was collected from the jugular vein of each mouse at the following time points: 0.25, 0.5, 1, 2, 4, 6, 8 and 24 h after intravenous administration. Total area under the concentration time curve (AUC), the elimination half-time (t1/2), the peak concentration (Cmax) and the time to reach peak concentration (Tmax) of samples were determined directly from the experimental data using WinNonlin V6.2.1.

Data set [8] in a line: Stability in mouse/human microsomes, pooled range. Format: in vitro ADME. As to the method: as §1
Where [9] appears, read: Homo sapiens, range over A549 and A549/DOX, read-out: IC50, range over A549 and A549/DOX.
[10] abbreviates: range over the three lung cancer cell lines, read-out: IC50, range over A549, A549/DOX and A549/DDP.

Like-named read-outs stand apart in the source and are kept apart here.

A word on the AUC: it is the area under the concentration-time curve, a measure of exposure. A high value points to high exposure. The Cmax is the maximum level reached in the sampled fluid or tissue. For orientation: half-life means the time needed for the level to fall by half in the phase considered. Low readings indicate fast loss, high ones slow loss. One may read the clearance as a measure of how efficiently the substance is removed, as volume per time. For orientation: bioavailability means the share of a dose that reaches the circulation, judged against a reference dose that is usually intravenous. Usually Tmax stands for the time from dosing to the highest level.

Turning to `C[C@@H]1CC[C@H]2[C@@H](C)C(OCc3cn(CCN4C(=O)C(=NO)c5cc(F)ccc54)nn3)O[C@@H]3O[C@@]4(C)CC[C@@H]1[C@]32OO4` (stereo partly drawn) [9i, 5-fluoro-3-(hydroxyimino)-1-(2-(4-((((3R,5aS,6R,8aS,9R,12R,12aR)-3,6,9-trimethyldecahydro-12H-3,12-epoxy[1,2]dioxepino[4,3-i]isochromen-10-yl)oxy)methyl)-1H-1,2,3-triazol-1-yl)ethyl)indolin-2-one], the “Liver microsomes, Mouse” value in data set [1] was 46%. The IC50 in data set [2] is 14.3 µM; in data set [3] (setting [9]), 7.54 to 15.9 µM; in data set [3] (setting [10]) it was 9.1 to 15.9 µM; in [4], over 100 µM; in data set [5] it was 15.9 µM; with A549 lung cancer cells, 9.1 µM. Further, in [4], the “SI (selectivity index)” value is recorded as over 11.0. Moreover, in [6], the “Liver microsomes, Human” value was 60%.

With `C[C@@H]1CC[C@H]2[C@@H](C)C(OCc3cn(CCN4C(=O)C(=O)c5cc(F)ccc54)nn3)O[C@@H]3O[C@@]4(C)CC[C@@H]1[C@]32OO4` (stereo partly drawn) [8c, 5-fluoro-1-(2-(4-((((3R,5aS,6R,8aS,9R,12R,12aR)-3,6,9-trimethyldecahydro-12H-3,12-epoxy[1,2]dioxepino[4,3-i]isochromen-10-yl)oxy)methyl)-1H-1,2,3-triazol-1-yl)ethyl)indoline-2,3-dione], in [1], the “Liver microsomes, Mouse” value turned out to be 71%. Further, in [7], the exposure (AUC) is 654 ng·h/mL, the Cmax was found to be 12.5 µM, the half-life was 4.2 h and the clearance is 52.7 mL/min/kg. Moreover, in [7], the bioavailability worked out at 27.5% and the Tmax was 0.2 h. For the same compound, the “Liver microsomes, range over mouse and human” value in data set [8] was 68–83%. This compound also registered an IC50 in data set [2] of 8.77 µM. Also, the IC50 in [3] (setting [9]) fell in the range of 7.54 to 15.9 µM. In addition, in data set [3] (setting [10]), the IC50 fell in the range of 7.54 to 12.1 µM. Besides, in data set [4], the “SI (selectivity index)” value is recorded as over 13.2 and the IC50 is over 100 µM. In data set [5], this compound registered an IC50 of 9.89 µM. For the same compound, in the data set with A549 lung cancer cells, the IC50 came to 7.54 µM. In [6], the “Liver microsomes, Human” value was 83%.

For `C[C@@H]1CC[C@H]2[C@@H](C)C(OCc3cn(CCN4C(=O)C(=O)c5ccccc54)nn3)O[C@@H]3O[C@@]4(C)CC[C@@H]1[C@]32OO4` (stereo partly drawn) [8a, 1-(2-(4-((((3R,5aS,6R,8aS,9R,12R,12aR)-3,6,9-trimethyldecahydro-12H-3,12-epoxy[1,2]dioxepino[4,3-i]isochromen-10-yl)oxy)methyl)-1H-1,2,3-triazol-1-yl)ethyl)indoline-2,3-dione], the “Liver microsomes, Mouse” value in [1] is 77%. In data set [7], the AUC is 883 ng·h/mL, the highest concentration (Cmax) is 6.4 µM, the half-life is 3.7 h and the clearance is 38.5 mL/min/kg. Also, in data set [7], the bioavailability is 35.6% and the time to peak (Tmax) is 0.2 h. Further, the “Liver microsomes, range over mouse and human” value in data set [8] is 68–83%. The compound further displayed an IC50 in [2] of 10.7 µM. Besides, the IC50 in data set [3] (setting [9]) is 7.54 to 15.9 µM. Moreover, the IC50 in [3] (setting [10]) was in the range of 7.54 to 12.1 µM. For the same compound, in [4], the “SI (selectivity index)” value is given as over 12.0 and the IC50 is over 100 µM. The IC50 in data set [5] came out at 12.1 µM. For the same compound, the IC50 in the data set on A549 lung cancer cells amounted to 8.32 µM. Besides, the “Liver microsomes, Human” value in data set [6] came out at 68%.
